Measured values as given in ChEMBL document CHEMBL4813936, “Cyclopeptides from the Mushroom Pathogen Fungus Cladobotryum varium” (J Nat Prod, 2021).
Active and inactive are the calls of the source. The rule behind the calls is not given here. Where a SMILES comes first, the peptide text is derived from it. [ ]: non-standard residue; d: D form. NMeF = CN[C@@H](Cc1ccccc1)C(=O)O; Hica(2S) = CC(C)C[C@H](O)C(=O)O; βAla = NCCC(=O)O

Columns and labels:
[1] = test system: HeLa; test: Induction of autophagy in human HeLa cells expressing GFP-LC3 assessed as increase in punctate structures at 10 nM measured after 24 hrs by fluorescence microscopic analysis; assay type: functional, cell-based
[2] = test system: HeLa; test: Induction of autophagy in human HeLa cells expressing GFP-LC3 assessed as suppression of autolysosome formation at 10 nM measured after 24 hrs by fluorescence microscopic analysis; assay type: functional, cell-based
[3] = test system: P388; test: Cytotoxicity against mouse P388 cells measure after 72 hrs by XTT assay; assay type: functional, cell-based
[4] = test system: Kocuria rhizophila; test: Antibacterial activity against Kocuria rhizophila ATCC9341 assessed as reduction in microbial growth after 20 hrs by liquid microculture method; assay type: functional, organism-based
[5] = test system: Staphylococcus aureus; test: Antibacterial activity against Staphylococcus aureus FDA209P JC-1 assessed as reduction in microbial growth after 20 hrs by liquid microculture method; assay type: functional, organism-based
[6] = test system: Agrobacterium tumefaciens; test: Antibacterial activity against Rhizobium radiobacter NBRC14554 assessed as reduction in microbial growth after 20 hrs by liquid microculture method; assay type: functional, organism-based
[7] = test system: Ralstonia solanacearum; test: Antibacterial activity against Ralstonia solanacearum assessed as reduction in microbial growth after 20 hrs by liquid microculture method; assay type: functional, organism-based
[8] = test system: Candida albicans; test: Antifungal activity against Candida albicans NBRC0197 assessed as reduction in microbial growth after 20 hrs by liquid microculture method; assay type: functional, organism-based
[9] = test system: Trichophyton rubrum; test: Antifungal activity against Trichophyton rubrum NBRC5467 assessed as reduction in microbial growth after 20 hrs by liquid microculture method; assay type: functional, organism-based

Row | Structure (SMILES) | Activity [1] | Activity [2] | Activity [3] | Activity [4] | Activity [5] | Activity [6] | Activity [7] | Activity [8] | Activity [9]
1 | CC(C)C[C@@H]1OC(=O)CCNC(=O)[C@H](Cc2ccccc2)N(C)C(=O)[C@H](Cc2ccccc2)N(C)C(=O)[C@H](C(C)C)NC(=O)[C@@H]2CCCN2C1=O (cyclo([Hica(2S)]PV[NMeF][NMeF][βAla])) | inactive | inactive | inactive | inactive | inactive | inactive | inactive | inactive | inactive
2 | CC[C@H](C)[C@@H]1NC(=O)[C@@H]2CCCN2C(=O)[C@H](CC(C)C)OC(=O)CCNC(=O)[C@H](Cc2ccccc2)N(C)C(=O)[C@H](Cc2ccccc2)N(C)C1=O (cyclo(I[NMeF][NMeF][βAla][Hica(2S)]P)) | Active | Active | inactive | inactive | inactive | inactive | inactive | inactive | inactive
3 | CC[C@H](C)[C@@H]1NC(=O)[C@H](CC(C)C)NC(=O)[C@H](Cc2ccccc2)NC(=O)[C@@H](Cc2ccccc2)NC(=O)[C@@H](Cc2ccccc2)NC1=O | inactive | inactive | inactive | inactive | inactive | inactive | inactive | inactive | inactive
